Measured values published in patent US9556437B2, “FAT1 gene in cancer and inflammation” (DEPARTMENT OF BIOTECHNOLOGY (DBT), priority 2012, dated 2017).
Entries after “also recorded” stand apart in the source; their conditions may differ.

Key:
Assay type in all cases: cell-based, human
FAT1 mRNA = experiment: FAT1 knockdown by siRNA, q-PCR for FAT1; settings: U87MG cell line
Method: (§1) Cell Culture and siRNA Transfection: The human glioma cell lines U87MG, U373, A172, T98G, GOS3 and SW1088 were obtained from ATCC; Rockville, Md., cultured in DMEM (Sigma-Aldrich, Switzerland) supplemented with 10% (v/v) FCS (Sigma-Aldrich), 3.7 g/l sodium bicarbonate (Sigma-Aldrich), Ciprofloxacin 10 μg/ml and 5% CO2 at 37° C. For transfection, 2×10^5 cells were seeded per 25 cm^2 flask. After 24 hrs, cells were transfected with FAT1 siRNA and universal medium GC control siRNA (Invitrogen) according to the manufacturer's protocol with a final concentration of 20 nM of siRNA using LIPOFECTAMINE 2000 (Invitrogen) and Opti-Mem media (Invitrogen). After 4 hrs of siRNA transfection, the media was supplemented with DMEM containing 2×FCS. The ability of each siRNA to mediate knockdown of FAT1 mRNA was confirmed using qRT-PCR. Photomicrographs of the cells were taken using an inverted phase contrast microscope (Nikon TMS, Phase contrast microscope, Japan). For simultaneous knockdown of FAT1 and PDCD4, siRNA from Dharmacon were used. Transfection was performed as earlier with 50 nM of FAT1 siRNA along with 50 nM of PDCD4 siRNA or 50 nM of control siRNA.
cDNA Synthesis and Quantitative PCR: Total RNA was isolated from cells at appropriate time point (vide supra) using TRIzol reagent (Invitrogen), quantified using a Nanodrop ND-1000 spectrophotometer. […]

U87MG cells = experiment: MTT assay; settings: 24, 48, 72 and 96 hrs of transfection, vs siControl
Method: On day 1, siRNA transfection was carried out. 1 ml of OPTIMEM, 50 picomoles of siRNA (siControl and siFAT1) and 3 μl of LIPOFECTAMINE 2000 was used per well. Cells were then analyzed by flow-cytometery after 72 hrs of transfection to assess the cell cycle distribution of individual cells. Cells were fixed in 70% ethanol overnight at −20′C followed by propidium iodide (PI) staining. Florescence was measured on FACS (florescence activated cell sorter, BD Biosciences, Bedford, Mass.). […] On day 1, transfection was carried out. 50 μl of OPTIMEM, 2 picomoles of siRNA (control and FAT1 siRNA) and 0.5 μl of LIPOFECTAMINE 2000 was used per well. After 4 hrs incubation at 37° C., 50 μl 2× media was added per well. After every time point (24, 48, 72 and 96 hrs of transfection), media was removed from wells and 100 μl of MTT (0.2 mg/ml) was added per well and incubated for 2-4 hrs. The formazan crystals formed were dissolved by addition of 100 μl of DMSO and absorbance was measured at 570 nm.

U87MG and A172 cells = experiment: Cell morphology, phase contrast microscopy; settings: U87MGsiFAT1 and A172siFAT1 vs siControl, 72 hrs post transfection
Method: as §1

PGE2 = PGE2 ELISA of conditioned medium; settings: U87MGsiFAT1 vs siControl, 72 hrs, p<0.01
Method: PGE2 ELISA: U87MG cells (2.5×10^5 cells/flask) were plated into 25 cm^2 flask. Transfection was performed on day 1 and 72 hrs later, the conditioned medium was collected and concentrated using Centricon YM-30. The concentration of PGE2 secreted into the medium was measured with an EIA kit for human PGE2 (Cayman Chemical, Michigan, USA).

Substance: siFAT1: FAT1 specific siRNA (Invitrogen), FAT Stealth RNAi siRNA-I (HSS103567), used for further experiments (sense CCCAACACACCUGUGGUCAUGGUAA; antisense UUACCAUGACCACAGGUGUGUUGGG; Stealth modification, chemistry not fully specified; listed as Homo sapiens)
- knockdown efficiency among three FAT1 siRNAs (FAT1 mRNA): maximum knockdown efficiency
- cell viability / proliferation by MTT (U87MG cells): no variation; also recorded: No significant difference
- cell morphology (U87MG and A172 cells): significant morphological alterations; also recorded: Distinct phenotypic changes
- reduction of PGE2 secreted into the medium (PGE2): > 2 fold
